In PMC4018220 (Transplantation, 2014):
Like-named read-outs stand apart in the source and are kept apart here.

Tests used:
[1] = for Median [IQR] AUC: TAC, all weeks, dose and weight adjusted
[2] = cited from earlier work
clinical = settings: human, in vivo

C=CC[C@@H]1/C=C(\C)C[C@H](C)C[C@H](OC)[C@H]2O[C@@](O)(C(=O)C(=O)N3CCCC[C@H]3C(=O)O[C@H](/C(C)=C/[C@@H]3CC[C@@H](O)[C@H](OC)C3)[C@H](C)[C@@H](O)CC1=O)[C@H](C)C[C@@H]2OC [TAC, tacrolimus]
Change in AUC over time ([1]; NNRTIs dosed with TAC): No change | Increase over time of dose and weight adjusted AUC ([1]; TAC given with protease inhibitors with or without NNRTIs): ~ 30% | Change of Tmax over time ([1]; TAC with NNRTIs alone): decreased | Change of Tmax over time ([1]; TAC with combination PI+NNRTIs): doubled | Median [IQR] AUC ([1]; +NNRTI): 3142 [2121-5157] ng*hr/mL/mg/kg | Median [IQR] AUC ([1]; +PI): 26889 [17208-42250] ng*hr/mL/mg/kg | Median [IQR] AUC ([1]; +PI/NNRTI): 12587 [8524-18780] ng*hr/mL/mg/kg | Median Tac Cx ([1]; W2, C0, NNRTI (n=4)): 199 ng/mL/mg/kg | Median Tac Cx ([1]; W2, C0, PI (n=4)): 963 ng/mL/mg/kg | Median Tac Cx ([1]; W2, C1, NNRTI (n=4)): 225 ng/mL/mg/kg | Median Tac Cx ([1]; W2, C1, PI (n=4)): 1045 ng/mL/mg/kg | Median Tac Cx ([1]; W2, C2, NNRTI (n=4)): 338 ng/mL/mg/kg | Median Tac Cx ([1]; W2, C2, PI (n=4)): 1687 ng/mL/mg/kg | Median Tac Cx ([1]; W2, C3, NNRTI (n=4)): 280 ng/mL/mg/kg | Median Tac Cx ([1]; W2, C3, PI (n=4)): 2325 ng/mL/mg/kg | Median Tac Cx ([1]; W2, C4, NNRTI (n=4)): 272 ng/mL/mg/kg | Median Tac Cx ([1]; W2, C4, PI (n=4)): 2332 ng/mL/mg/kg | Median Tac Cx ([1]; W12, C0, NNRTI (n=4)): 213 ng/mL/mg/kg | Median Tac Cx ([1]; W12, C0, PI (n=4)): 638 ng/mL/mg/kg | Median Tac Cx ([1]; W12, C1, NNRTI (n=4)): 420 ng/mL/mg/kg | Median Tac Cx ([1]; W12, C1, PI (n=4)): 1590 ng/mL/mg/kg | Median Tac Cx ([1]; W12, C2, NNRTI (n=4)): 368 ng/mL/mg/kg | Median Tac Cx ([1]; W12, C2, PI (n=4)): 2049 ng/mL/mg/kg | Median Tac Cx ([1]; W12, C3, NNRTI (n=4)): 290 ng/mL/mg/kg | Median Tac Cx ([1]; W12, C3, PI (n=4)): 2341 ng/mL/mg/kg | Median Tac Cx ([1]; W12, C4, NNRTI (n=4)): 296 ng/mL/mg/kg | Median Tac Cx ([1]; W12, C4, PI (n=4)): 2550 ng/mL/mg/kg | Median Tac Cx ([1]; W28, C0, NNRTI (n=3)): 193 ng/mL/mg/kg | Median Tac Cx ([1]; W28, C1, NNRTI (n=3)): 497 ng/mL/mg/kg | Median Tac Cx ([1]; W28, C2, NNRTI (n=3)): 368 ng/mL/mg/kg | Median Tac Cx ([1]; W28, C3, NNRTI (n=3)): 275 ng/mL/mg/kg | Median Tac Cx ([1]; W28, C4, NNRTI (n=3)): 223 ng/mL/mg/kg | Median Tac Cx ([1]; W52, C0, NNRTI (n=4)): 148 ng/mL/mg/kg | Median Tac Cx ([1]; W52, C1, NNRTI (n=4)): 301 ng/mL/mg/kg | Median Tac Cx ([1]; W52, C2, NNRTI (n=4)): 322 ng/mL/mg/kg | Median Tac Cx ([1]; W52, C3, NNRTI (n=4)): 242 ng/mL/mg/kg | Median Tac Cx ([1]; W52, C4, NNRTI (n=4)): 208 ng/mL/mg/kg | Association of higher TAC levels with new onset DM (OR) ([2]; HCV-positive liver transplant, p=0.12): 2.21 | Correlation of higher TAC trough levels with rejection ([2]; NIH multicenter trial): decreased rejection rates | Tmax (clinical): 2 to 3 h
